Test: Stability of crystalline forms of 5-CNAC (room temperature, humidity, storage)

form conversion on storage (storage of the mixture of Forms I and IV (Example 5) over time) | SMILES | stability as a function of relative humidity (relative humidity below about 50%)
convert to Form I over time on storage | O=C([O-])CCCCCCCNC(=O)c1cc(Cl)ccc1[O-].[Na+].[Na+] [Form IV, di-sodium salt of N-(5-chlorosalicyloyl)-8-aminocaprylic acid] | –
– | O=C([O-])CCCCCCCNC(=O)c1cc(Cl)ccc1[O-].[Na+].[Na+] [Form III, di-sodium salt of N-(5-chlorosalicyloyl)-8-aminocaprylic acid] | unstable at a relative humidity below about 50%

— US9238074B2, “Crystalline forms of the di-sodium salt of N-(5-chlorosalicyloyl)-8-aminocaprylic acid” (Emisphere Technologies, Inc., priority 2005, dated 2016)
